Results on 5 molecules are retold here after ChEMBL document CHEMBL1759884, “Synthesis and evaluation of bibenzyl glycosides as potent tyrosinase inhibitors” (Eur J Med Chem, 2011).

The experiment has as its target Tyrosinase (Agaricus bisporus). Nature of the experiment: Inhibition of Tyrosinase.
On to `OC[C@H]1O[C@@H](Oc2ccc(CCc3ccc(O)cc3O)c(O)c2)[C@H](O)[C@@H](O)[C@@H]1O`, for which the IC50 (as a rule, the concentration that gives 50% inhibition) amounted to 770 nM. The figure for `OC[C@H]1O[C@@H](O[C@H]2[C@H](O)[C@@H](O)[C@H](Oc3ccc(CCc4ccc(O)cc4O)c(O)c3)O[C@@H]2CO)[C@H](O)[C@@H](O)[C@@H]1O` is 680 nM; for `OC[C@H]1O[C@H](O[C@H]2[C@H](O)[C@@H](O)[C@H](Oc3ccc(CCc4ccc(O)cc4O)c(O)c3)O[C@@H]2CO)[C@H](O)[C@@H](O)[C@@H]1O` it is 830 nM. The figure for `Oc1ccc(CCc2ccc(O)cc2O[C@@H]2OC[C@@H](O)[C@H](O)[C@H]2O)c(O)c1` is 1600 nM. Next, `Oc1ccc(CCc2ccc(O[C@@H]3OC[C@@H](O)[C@H](O)[C@H]3O)cc2O)c(O)c1`: 430 nM.
